Measurements taken from publication PMC9697831 (Journal of Fungi, 2022).
Positions of bridges follow the written chain, without caps; N, C: chain ends. No end group written: not given here.

Assays:
Kv1.3 channel = conditions: ref 11 (charybdotoxin), 12 (noxiustoxin), 13 (Vm24), 14 (ShK), 15 (margatoxin), 16 (HsTx1); cited from earlier work
From the text: Voltage-gated potassium (Kv) channels regulate the selective efflux of K^+ through the plasma membrane, thereby shaping the action potentials in excitable cells and regulating many other cellular functions in non-excitable cells. The Kv channel family includes 12 subfamilies (Kv1-Kv12). The Kv1 (Shaker) subfamily consists of eight voltage-gated potassium channels belonging to the delayed rectifier class (Kv1.1–Kv1.8). Of this Kv subfamily, the Kv1.3 channel is mainly expressed in neurons and immune cells, and therefore, channel inhibition in these cells may be useful in the t ...

hKv1.3 [1] = target: T1, hKv1.3 (Homo sapiens, UniProt P22001); experiment: Whole-cell patch clamp of hKv1.3 currents in activated human T lymphocytes; format: cell-based; conditions: for time needed to reach equilibrium (steady-state) block of hKv1.3: 1 nM; for Hill coefficient (H): Hill equation fit of concentration-response on hKv1.3, n = 3-5; for Activity on hKv1.3: RP-HPLC fraction of His-tagged recombinant peptide, patch clamp; for recovery from block on perfusion with toxin-free solution: washout
T1 construct: endogenous in cells
Method: Human venous blood from anonymized healthy donors was obtained from a blood bank. Peripheral blood mononuclear cells (PBMCs) were isolated by density gradient centrifugation using Histopaque1077 (Cat. No 10771). The obtained cells were resuspended in RPMI 1640 medium containing 10% fetal calf serum, 100 μg/mL penicillin, 100 μg/mL streptomycin, and […], seeded at a density of 5 × 10^5 cells per ml in a 24-well culture plate and grown in a 5% CO2 incubator at 37 °C for 2–5 days. Phytohemagglutinin A (Cat. No. L1668) was added to the medium at concentrations of 5, 7, and 10 μg/mL to increase the voltage-gated potassium ion channel expression.
Electrophysiological measurements were performed by using the patch clamp technique in a whole-cell configuration on voltage-clamped cells using the Axon Multiclamp 700B amplifier and the Axon Digidata1440 digitizer; the Clampex 10.7 software was used for data acquisition (all from Molecular Devices, Sunnyvale, CA, USA). Micropipettes were pulled from GC150F-15 borosilicate capillaries (Harvard Apparatus Kent, Edenbridge, UK), resulting in 3–4 MΩ resistance in the bath solution. The extracellular solution (bath solution) contained 145 mM NaCl, 5 mM KCl, 1 mM MgCl2, 2.5 mM CaCl2, 5.5 mM glucose, and 10 mM HEPES, with a pH of 7.35 and an osmolarity between 302 and 308 mOsM/L. The pipette filling solution (intracellular) consisted of 140 mM KF, 2 mM MgCl2, 1 mM CaCl2, 10 mM HEPES, and 11 mM EGTA, with a pH of 7.22 and an osmolarity of 295 mOsM/L. When the toxins were dissolved in bath solution at different molar concentrations, they were supplemented with 0.1 mg/mL bovine serum albumin (BSA). To record hKv1.3 in activated human T lymphocytes (Kv1.3 overexpression), 15 ms-long depolarizing pulses were applied at +50 mV from a holding potential of −120 mV every 15 s. Current traces were low-pass filtered by the analog four-pole Bessel filters of the amplifiers, and the sampling frequency was set at 20 kHz, which was at least twice that of the filter cutoff frequency. The control and test solutions were perfused into the cell through a gravity flow perfusion system. The excess bath solution was constantly removed with vacuum suction.
The effect of the toxin at a given molar concentration was calculated as the remaining current fraction (RCF = I/I0, where I0 is the peak current in the absence of the toxin and I is the peak current at the equilibrium block at a given toxin concentration). The data points on the dose-response curves represent the mean of 3–5 individual measurements. The data points were fitted with the Hill equation, RCF=KdH/KdH+toxin^H where [toxin] is the concentration of the toxin and H is the Hill coefficient. The best fit curve gave the Kd value of a given toxin.

rat Kv1.3 (rKv1.3) = conditions: rKv1.3 expressed in oocytes; cited from earlier work
From the text: Anuroctoxin (AnTx, α-KTx 6.12) is a small peptide consisting of 35 amino acids (4109 Da). […] Ts6 (α-KTx 12.1) consists of 40 amino acids with a molecular mass of 4506 Da. Ts6 was isolated from the venom of the scorpion Tytyus serrulatus and inhibits hKv1. ... || In the preliminary experiments to evaluate the biological activity of the recombinant toxins, peptide concentrations slightly higher than the reported Kd values for the native toxins were used.

hKv1.3 [2] = target: T1, hKv1.3; conditions: 100 nM, hKv1.3 expressed in CHO cells; cited from earlier work
Method: As mentioned earlier, the Kd values of Tag-Vm24 and Untag-AnTx were very similar to those reported for the native toxins. […] The Kd value of the native Ts6 was determined using Xenopus oocytes expressing rat Kv1.3 (rKv1.3). […] Differences in the type of cell expression system as well as the use of a channel from di ...

T1 sequence (P22001 whole entry, the tested form may be a part): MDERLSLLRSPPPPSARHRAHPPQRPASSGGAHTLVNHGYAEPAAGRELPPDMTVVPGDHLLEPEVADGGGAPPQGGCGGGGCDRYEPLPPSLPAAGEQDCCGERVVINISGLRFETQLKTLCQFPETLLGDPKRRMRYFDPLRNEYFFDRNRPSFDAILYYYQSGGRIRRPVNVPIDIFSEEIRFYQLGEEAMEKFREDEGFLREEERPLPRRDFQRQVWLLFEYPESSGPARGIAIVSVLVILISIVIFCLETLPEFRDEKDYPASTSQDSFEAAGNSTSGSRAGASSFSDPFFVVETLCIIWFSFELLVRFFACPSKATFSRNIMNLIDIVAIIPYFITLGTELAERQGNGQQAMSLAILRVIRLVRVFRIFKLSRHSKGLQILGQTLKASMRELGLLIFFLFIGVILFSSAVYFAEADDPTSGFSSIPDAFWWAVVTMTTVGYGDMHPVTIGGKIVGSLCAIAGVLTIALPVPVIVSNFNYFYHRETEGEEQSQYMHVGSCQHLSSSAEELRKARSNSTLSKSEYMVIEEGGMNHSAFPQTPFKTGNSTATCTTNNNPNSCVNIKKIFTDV

Compound | concentration range in which the toxin blocks the Kv1.3 channel (Kv1.3 channel) | Hill coefficient (H) (hKv1.3 [1]) | Activity on hKv1.3 (hKv1.3 [1]) | recovery from block on perfusion with toxin-free solution (hKv1.3 [1]) | other results
margatoxin (TIINVKCTSPKQCLPPCKAQFGQSAGAKCMNGKCKCYPH; UniProt P40755 1-39, looked up) | picomolar range |  |  |  | 
noxiustoxin: toxin that blocks the Kv1.3 channel (TIINVKCTSPKQCSKPCKELYGSSAGAKCMNGKCKCYNN; UniProt P08815 1-39, looked up) | nanomolar range |  |  |  | 
charybdotoxin | nanomolar range |  |  |  | 
CSCC[C@@H]1NC(=O)[C@@H]2CSSC[C@H](NC(=O)[C@H](CCC(=O)O)NC(=O)[C@H](CCCCN)NC(=O)[C@H](CCC(N)=O)NC(=O)[C@H](CCCCN)NC(=O)[C@H](CC(=O)O)NC(=O)[C@H](CC(=O)O)NC(=O)[C@H](CC(=O)O)NC(=O)[C@H](CC(=O)O)NC(=O)[C@H](Cc3c[nH]cn3)NC(=O)[C@H](Cc3c[nH]cn3)NC(=O)[C@H](Cc3c[nH]cn3)NC(=O)[C@H](Cc3c[nH]cn3)NC(=O)[C@H](Cc3c[nH]cn3)NC(=O)[C@H](Cc3c[nH]cn3)NC(=O)[C@H](CCC(N)=O)NC(=O)[C@H](CC(C)C)NC(=O)[C@H](Cc3ccccc3)NC(=O)[C@@H](N)CCC(=O)O)C(=O)N[C@@H]([C@@H](C)O)C(=O)NCC(=O)N3CCC[C@H]3C(=O)N[C@@H](CCC(N)=O)C(=O)N[C@@H](Cc3c[nH]cn3)C(=O)N[C@H]3CSSC[C@H](NC(=O)[C@H](CCCCN)NC(=O)[C@H](CCCNC(=N)N)NC(=O)[C@H](CC(N)=O)NC1=O)C(=O)N[C@@H](CCCCN)C(=O)N[C@H]1CSSC[C@H](NC(=O)[C@H](Cc4ccccc4)NC(=O)[C@H](CC(N)=O)NC(=O)[C@H]([C@@H](C)O)NC3=O)C(=O)N[C@@H](CCCNC(=N)N)C(=O)N[C@@H](CCCCN)C(=O)N[C@@H](CC(N)=O)C(=O)N[C@@H](CCCCN)C(=O)N[C@@H](CSSC[C@@H](C(=O)N[C@@H](CCCCN)C(=O)O)NC(=O)[C@H](CC(N)=O)NC(=O)[C@H](Cc3ccccc3)NC1=O)C(=O)N[C@@H]([C@@H](C)O)C(=O)N[C@@H](Cc1c[nH]cn1)C(=O)NCC(=O)N[C@@H](CCCCN)C(=O)N2 [Tag-AnTx] |  | 0.91 | Positive | full recovery | time needed to reach equilibrium (steady-state) block of hKv1.3 (hKv1.3 [1]): ~ 2.5 min
EFLQHHHHHHIEGRAAAISCVGSPECPPKCRAQGCKNGKCMNRKCKCYYC (disulfide 20-40, 26-45, 30-47, 35-50) [Tag-Vm24] |  | 0.92 | Positive | not reversible | time needed to achieve equilibrium block of hKv1.3 (hKv1.3 [1]; 10 pM): ~ 25 min; time needed to reach equilibrium (steady-state) block of hKv1.3 (hKv1.3 [1]): ~ 5 min
EFHHHHHHDDDDKWCSTCLDLACGASRECYDPCFKAFGRAHGKCMNNKCRCYT (disulfide 15-18, 23-44, 29-49, 33-51) [Tag-Ts6] |  | 1.06 | Positive | complete recovery | block of more than 50% of the Kv1.3 current (hKv1.3 [1]; 100 nM, 6x-His-tagged peptide): could not be replicated; time of onset of equilibrium block and complete recovery of peak current (hKv1.3 [1]; progressively increasing concentrations): a few seconds
CSCC[C@@H]1NC(=O)[C@@H]2CSSC[C@H](NC(=O)[C@H](CCC(=O)O)NC(=O)[C@H](CCCCN)NC(=O)[C@@H](N)CCC(N)=O)C(=O)N[C@@H]([C@@H](C)O)C(=O)NCC(=O)N3CCC[C@H]3C(=O)N[C@@H](CCC(N)=O)C(=O)N[C@@H](Cc3c[nH]cn3)C(=O)N[C@H]3CSSC[C@H](NC(=O)[C@H](CCCCN)NC(=O)[C@H](CCCNC(=N)N)NC(=O)[C@H](CC(N)=O)NC1=O)C(=O)N[C@@H](CCCCN)C(=O)N[C@H]1CSSC[C@H](NC(=O)[C@H](Cc4ccccc4)NC(=O)[C@H](CC(N)=O)NC(=O)[C@H]([C@@H](C)O)NC3=O)C(=O)N[C@@H](CCCNC(=N)N)C(=O)N[C@@H](CCCCN)C(=O)N[C@@H](CC(N)=O)C(=O)N[C@@H](CCCCN)C(=O)N[C@@H](CSSC[C@@H](C(=O)N[C@@H](CCCCN)C(=O)O)NC(=O)[C@H](CC(N)=O)NC(=O)[C@H](Cc3ccccc3)NC1=O)C(=O)N[C@@H]([C@@H](C)O)C(=O)N[C@@H](Cc1c[nH]cn1)C(=O)NCC(=O)N[C@@H](CCCCN)C(=O)N2 [Untag-AnTx] |  |  |  |  | Kd (hKv1.3 [1]; whole-cell patch clamp, activated human peripheral T lymphocytes, 15 ms pulses to +50 mV from -120 mV every 15 s, Hill equation fitted to remaining current fraction, mean ± SEM, n = 3-5, read-out: Kd for block of hKv1.3): 0.73 nM
maurotoxin (VSCTGSKDCYAPCRKQTGCPNAKCINKSCKCYGC; UniProt P80719 1-34, looked up) |  |  |  |  | Kd (rat Kv1.3 (rKv1.3)): 180 nM; sensitivity of hKv1.3 to the toxin (hKv1.3 [2]): almost insensitive
